This is an account of results in publication PMC8878464, “Fenchone Derivatives as a Novel Class of CB2 Selective Ligands: Design, Synthesis, X-ray Structure and Therapeutic Potential” (Molecules, 2022).

One assay deals with human CB2R (hCB2R) (Homo sapiens, UniProt P34972). Description: [3H]CP-55,940 competition displacement binding assay, hCB2R membranes. The following applies: Ki (nM) hCB2R. The protocol:
The compounds were further characterized using a radioligand binding assay to determine their affinities for CB1R and CB2R based on each test compound’s ability to displace the radiolabeled CB1R/CB2R agonist CP-55,940 from membranes of cells expressing the human CB1R and CB2R [24].
Membranes from cells expressing hCB1R and hCB2R were purchased from Charles River, (Cat#A317 and A318, respectively; OH, USA). Solutions of test compounds ranging from 0.1 nM to 10 mM were prepared in DMSO. The desired amount of membrane preparation was diluted with ice-cold assay buffer (50 mM Tris-HCl, 2.5 mM EDTA, 5 mM MgCl2, 0.1% BSA, pH 7.4) and was vortexed. […] The assays were incubated for 90 min at 30 °C and then immediately filtered on WHATMAN GF/B Filter Paper (Fired) using a Brandel M-24R Harvester followed by six washes with ice cold wash buffer (50 mM Tris-HCl, 2.5 mM EDTA, 5 mM MgCl2, 0.1% BSA, pH 7.4). Radioactivity was detected by adding the Filter Paper directly to the ULTIMA GOLD scintillation cocktail (PerkinElmer, Waltham, MA, USA), incubation at 20 °C for 60 min and then counted using a Tri-Carb 4910TR liquid scintillation counter (PerkinElmer, Waltham, MA, USA).
Each curve represents the mean of three experiments performed in triplicate.

The target in the next assay is T1, hCB2R (Homo sapiens, UniProt P34972).
T1 construct: purchased Charles River A318; host or cells: CHO-K1 cells
T1 sequence (P34972 whole entry): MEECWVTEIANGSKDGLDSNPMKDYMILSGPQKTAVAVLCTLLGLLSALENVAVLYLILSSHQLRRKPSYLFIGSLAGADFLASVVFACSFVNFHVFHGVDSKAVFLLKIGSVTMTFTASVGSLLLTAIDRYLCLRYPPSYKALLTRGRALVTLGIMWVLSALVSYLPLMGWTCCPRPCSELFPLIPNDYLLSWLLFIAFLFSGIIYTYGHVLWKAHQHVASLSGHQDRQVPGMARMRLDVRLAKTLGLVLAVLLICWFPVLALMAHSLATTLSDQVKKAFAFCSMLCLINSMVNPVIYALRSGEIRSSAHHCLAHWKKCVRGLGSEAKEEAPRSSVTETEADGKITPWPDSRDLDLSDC
Put plainly: [35S]GTPγS binding assay at hCB2R. Format: biochemical. The protocol: The method used for measuring agonist-stimulated binding of [^35S]GTPγS was based on a described protocol. Membranes (5 μg protein) were incubated in GTPγS assay buffer (50 mM Tris HCl (pH 7.4), 0.2 mM EGTA, 9 mM MgCl2, 150 mM NaCl, 1 mg/mL BSA) containing 100 μM GDP, 0.05 nM [^35S]GTPγS and test compounds at various concentrations. Vacuum filtration was used to separate bound ligand from free ligand. We used 10 μM GTPS to determine nonspecific binding. Basal binding was assayed in the absence of the ligand and in the presence of GDP.
Each symbol represents the mean percentage increase in [^35S]GTPγS binding ± SE.

For assay [1], the system named is zymosan-induced paw inflammation. Description: Zymosan-induced hind paw swelling (oedema) in mice. Format: in vivo. Conditions: 6 h after 60 μg zymosan paw injection.
Assay [2] relates to zymosan-induced hyperalgesia. Description: von Frey monofilament pain assay in zymosan-injected mice. Format: in vivo. Conditions: 15 and 25 mg/kg ip, after 6 h, p < 0.01. The protocol: We injected 40 μL of 1.5% (w/v) zymosan A in 0.9% saline into the right hind paw of the mice to induce inflammation. […] Control mice were injected with vehicle. Paw swelling and pain perception were measured after 2, 6 and 24 h.

The next assay has as its system TNF-α. Put plainly: Serum TNF-α (ELISA) after zymosan injection in mice. Type of assay: in vivo. The following applies: 24 h after zymosan. The protocol: Control mice were injected with vehicle.
A mouse TNFα ELISA kit was used according to the manufacturer’s instructions (R&D Systems, Minneapolis, MN, USA).
On the technique in general: ELISA stands for enzyme-linked immunosorbent assay.

Chain of human CB2R (hCB2R) (P34972 whole entry): as above

On to `CCCCCCC(C)(C)c1cc(OC)c(C2(O)C3(C)CCC(C3)C2(C)C)c(OC)c1` (centres unmarked) [Compound 1d, 2-(2′,6′-Dimethoxy-4′-(2″-methyloctan-2″-yl)phenyl)-1,3,3-trimethylbicyclo[2.2.1]heptan-2-ol], for which the affinity at human CB2R (hCB2R) corresponds to a Ki of 3.51 nM. At hCB2R (increase in [35S]GTPγS binding to hCB2R, two independent experiments in triplicate), it took 2.59 nM to reach a half-maximal effect (EC50). Also, at hCB2R (maximal effect as percentage of HU-308 response at 1 µM), the “E(max)%” value is on record as 89.6%. Besides, the values for the reduction in swelling in assay [1] (15 mg/kg ip) and in assay [1] (25 mg/kg ip) were 30% and 54%, respectively. Moreover, in assay [2], the “anti-nociceptive effect (paw withdrawal threshold, von Frey)” value was “strong anti-nociceptive effects”. The “inhibition of TNF-α serum levels” value is reported as 26% with TNF-α (15 mg/kg ip) and 40% in the assay with TNF-α (25 mg/kg ip).
